According to PubChem BioAssay AID248 (DTP/NCI, 2004):
Values joined by “and” are separate entries in the source; they are usually repeats but may differ in a detail not shown here. Identical values can stand only once. Inconclusive results and toxic doses are left out.

Tested on: L1210 leukemia ip in BDF1 mice, survival T/C
Test: NCI In Vivo Anticancer Drug Screen. Data for tumor model L1210 Leukemia (intraperitoneal) in B6D2F1 (BDF1) mice
Settings: endpoint: mean survival time, higher = longer survival
Outline: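 Transplantable tumor model; survival measured in treated vs vehicle control mice. Value = treated/control.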

[1] = dose: 100.0 mg/kg/injection, schedule: Q04DX003 (ip), vehicle: saline with Tween-80
[2] = dose: 200.0 mg/kg/injection, schedule: Q04DX003 (ip), vehicle: saline with Tween-80
[3] = dose: 400.0 mg/kg/injection, schedule: Q04DX003 (ip), vehicle: saline with Tween-80
[4] = dose: 100.0 mg/kg/injection, schedule: Q04DX003 (ip), vehicle: Klucel (hydroxypropylcellulose) (HPC)
[5] = dose: 200.0 mg/kg/injection, schedule: Q04DX003 (ip), vehicle: Klucel (hydroxypropylcellulose) (HPC)
[6] = dose: 400.0 mg/kg/injection, schedule: Q04DX003 (ip), vehicle: Klucel (hydroxypropylcellulose) (HPC)
[7] = dose: 100.0 mg/kg/injection, schedule: Q04DX002 (ip), vehicle: Klucel (hydroxypropylcellulose) (HPC)
[8] = dose: 200.0 mg/kg/injection, schedule: Q04DX002 (ip), vehicle: Klucel (hydroxypropylcellulose) (HPC)
[9] = dose: 400.0 mg/kg/injection, schedule: Q04DX002 (ip), vehicle: Klucel (hydroxypropylcellulose) (HPC)
[10] = dose: 100.0 mg/kg/injection, schedule: Q01DX001 (ip), vehicle: saline
[11] = dose: 200.0 mg/kg/injection, schedule: Q01DX001 (ip), vehicle: saline
[12] = dose: 400.0 mg/kg/injection, schedule: Q01DX001 (ip), vehicle: saline
[13] = dose: 50.0 mg/kg/injection, schedule: Q01DX009 (ip), vehicle: saline
[14] = dose: 100.0 mg/kg/injection, schedule: Q01DX009 (ip), vehicle: saline
[15] = dose: 100.0 mg/kg/injection, schedule: Q04DX003 (ip), vehicle: saline
[16] = dose: 200.0 mg/kg/injection, schedule: Q04DX003 (ip), vehicle: saline
[17] = dose: 100.0 mg/kg/injection, schedule: Q01DX009 (ip), vehicle: Klucel (hydroxypropylcellulose) (HPC)
[18] = dose: 200.0 mg/kg/injection, schedule: Q01DX009 (ip), vehicle: Klucel (hydroxypropylcellulose) (HPC)
[19] = dose: 400.0 mg/kg/injection, schedule: Q01DX009 (ip), vehicle: Klucel (hydroxypropylcellulose) (HPC)
[20] = dose: 50.0 mg/kg/injection, schedule: Q01DX001 (ip), vehicle: saline
[21] = dose: 100.0 mg/kg/injection, schedule: Q01DX001 (ip), vehicle: carboxymethylcellulose (CMC)
[22] = dose: 50.0 mg/kg/injection, schedule: Q04DX002 (ip), vehicle: other
[23] = dose: 100.0 mg/kg/injection, schedule: Q04DX002 (ip), vehicle: other
[24] = dose: 50.0 mg/kg/injection, schedule: Q01DX009 (ip), vehicle: saline with Tween-80

## CC12CCC(CC1C(=O)O)C2 (configuration not stated)
[1]
  T/C: 96 % of control
[2]
  T/C: 94 % of control
[3]
  T/C: 98 % of control

## O=C(O)c1nc2ccccc2[nH]c1=O
[4]
  T/C: 88 % of control
[5]
  T/C: 92 % of control
[6]
  T/C: 87 % of control

## Oc1ccc2ccccc2c1C(c1ccccc1)N1CCOCC1 (configuration not stated)
[7]
  T/C: 88 % of control
[8]
  T/C: 88 % of control
[9]
  T/C: 101 % of control

## CCOC(=O)/C=C(\COC)c1ccccc1
[10]
  T/C: 104 % of control
[11]
  T/C: 104 % of control
[12]
  T/C: 104 % of control

## NC(=O)NNC(N)=O
[13]
  T/C: 91 % of control
[14]
  T/C: 98 % of control
[15]
  T/C: 102 % of control
[16]
  T/C: 101 % of control

## CCCCCCCCNC(=O)CCCCC(=O)NCCCCCCCC
[17]
  T/C: 91 % of control
[4]
  T/C: 90 % of control
[18]
  T/C: 86 % of control
[5]
  T/C: 90 % of control
[19]
  T/C: 95 % of control
[6]
  T/C: 101 % of control

## O=C(ONC(=O)[C@@H]1CCCC[C@H]1C(=O)NOC(=O)c1ccccc1)c1ccccc1
dose: 50.0 mg/kg/injection, schedule: Q01DX001 (ip), vehicle: Klucel (hydroxypropylcellulose) (HPC)
  T/C: 97 % of control
dose: 50.0 mg/kg/injection, schedule: Q01DX009 (ip), vehicle: Klucel (hydroxypropylcellulose) (HPC)
  T/C: 92 % of control
dose: 100.0 mg/kg/injection, schedule: Q01DX001 (ip), vehicle: Klucel (hydroxypropylcellulose) (HPC)
  T/C: 97 % of control
[17]
  T/C: 92 % of control
dose: 200.0 mg/kg/injection, schedule: Q01DX001 (ip), vehicle: Klucel (hydroxypropylcellulose) (HPC)
  T/C: 97 % of control
[18]
  T/C: 103 % of control
dose: 400.0 mg/kg/injection, schedule: Q01DX001 (ip), vehicle: Klucel (hydroxypropylcellulose) (HPC)
  T/C: 96 % of control
[19]
  T/C: 97 % of control

## NC(=O)NNc1ccccc1
[7]
  T/C: 94 % of control
[8]
  T/C: 94 % of control
[9]
  T/C: 90 % of control

## NC(=S)NCC12CC3CC(CC(C3)C1)C2
dose: 3.0 mg/kg/injection, schedule: Q04DX002 (ip), vehicle: Klucel (hydroxypropylcellulose) (HPC)
  T/C: 101 % of control and 114 % of control
dose: 6.0 mg/kg/injection, schedule: Q04DX002 (ip), vehicle: Klucel (hydroxypropylcellulose) (HPC)
  T/C: 106 % of control and 120 % of control
dose: 12.0 mg/kg/injection, schedule: Q04DX002 (ip), vehicle: Klucel (hydroxypropylcellulose) (HPC)
  T/C: 112 % of control
dose: 12.5 mg/kg/injection, schedule: Q04DX002 (ip), vehicle: Klucel (hydroxypropylcellulose) (HPC)
  T/C: 105 % of control
dose: 25.0 mg/kg/injection, schedule: Q04DX002 (ip), vehicle: Klucel (hydroxypropylcellulose) (HPC)
  T/C: 101 % of control

## CN=C(C#N)c1ccc(OC)c(OC)c1
[20]
  T/C: 102 % of control
[10]
  T/C: 96 % of control
[11]
  T/C: 102 % of control
[12]
  T/C: 102 % of control

## O=C(O)c1ccccc1C(NC(=O)N1C(=O)C=CC1=O)NC(=O)N1C(=O)C=CC1=O
[21]
  T/C: 97 % of control
dose: 200.0 mg/kg/injection, schedule: Q01DX001 (ip), vehicle: carboxymethylcellulose (CMC)
  T/C: 97 % of control
dose: 400.0 mg/kg/injection, schedule: Q01DX001 (ip), vehicle: carboxymethylcellulose (CMC)
  T/C: 106 % of control

## CCOC(=O)c1ccc(NCC(C)(C)[N+](=O)[O-])cc1
[14]
  T/C: 102 % of control
[15]
  T/C: 95 % of control
dose: 200.0 mg/kg/injection, schedule: Q01DX009 (ip), vehicle: saline
  T/C: 105 % of control
[16]
  T/C: 107 % of control
dose: 400.0 mg/kg/injection, schedule: Q01DX009 (ip), vehicle: saline
  T/C: 96 % of control and 105 % of control
dose: 400.0 mg/kg/injection, schedule: Q04DX003 (ip), vehicle: saline
  T/C: 91 % of control

## Cc1cn(C2CC(O)C(COC(c3ccccc3)(c3ccccc3)c3ccccc3)O2)c(=O)[nH]c1=O (configuration not stated)
dose: 100.0 mg/kg/injection, schedule: Q01DX005 (ip), vehicle: saline
  T/C: 104 % of control
dose: 200.0 mg/kg/injection, schedule: Q01DX005 (ip), vehicle: saline
  T/C: 96 % of control

## O=C(O)CC(C(=O)O)C1CCCC1 (configuration not stated)
dose: 75.0 mg/kg/injection, schedule: Q01DX001 (ip), vehicle: saline
  T/C: 102 % of control
dose: 150.0 mg/kg/injection, schedule: Q01DX001 (ip), vehicle: saline
  T/C: 94 % of control
dose: 300.0 mg/kg/injection, schedule: Q01DX001 (ip), vehicle: saline
  T/C: 92 % of control

## O=C1CCCCC1c1ccccc1 (configuration not stated)
[22]
  T/C: 99 % of control
[23]
  T/C: 92 % of control
dose: 100.0 mg/kg/injection, schedule: Q04DX003 (ip), vehicle: other
  T/C: 96 % of control
dose: 200.0 mg/kg/injection, schedule: Q04DX002 (ip), vehicle: other
  T/C: 108 % of control
dose: 200.0 mg/kg/injection, schedule: Q04DX003 (ip), vehicle: other
  T/C: 95 % of control
dose: 400.0 mg/kg/injection, schedule: Q04DX002 (ip), vehicle: other
  T/C: 99 % of control
dose: 400.0 mg/kg/injection, schedule: Q04DX003 (ip), vehicle: other
  T/C: 98 % of control

## NC1CC(C(=O)O)CCC1S (configuration not stated)
dose: 12.5 mg/kg/injection, schedule: Q04DX002 (ip), vehicle: saline
  T/C: 106 % of control
[22]
  T/C: 94 % of control
dose: 50.0 mg/kg/injection, schedule: Q04DX002 (ip), vehicle: saline
  T/C: 87 % of control
[23]
  T/C: 91 % of control

## CC(=O)Nc1cc([N+](=O)[O-])ccc1C
[17]
  T/C: 100 % of control
[18]
  T/C: 105 % of control

## O=S(=O)(O)CC1(CS(=O)(=O)O)COC1
[10]
  T/C: 95 % of control
dose: 100.0 mg/kg/injection, schedule: Q01DX009 (ip), vehicle: acetone
  T/C: 118 % of control
[11]
  T/C: 95 % of control
dose: 200.0 mg/kg/injection, schedule: Q01DX009 (ip), vehicle: acetone
  T/C: 106 % of control
[12]
  T/C: 96 % of control
dose: 400.0 mg/kg/injection, schedule: Q01DX009 (ip), vehicle: acetone
  T/C: 95 % of control

## O=C(O)C1CC2CCC1CC2 (configuration not stated)
[10]
  T/C: 104 % of control
[17]
  T/C: 100 % of control
[1]
  T/C: 92 % of control
[11]
  T/C: 93 % of control
[18]
  T/C: 92 % of control
[2]
  T/C: 95 % of control
[12]
  T/C: 100 % of control
[19]
  T/C: 92 % of control
[3]
  T/C: 101 % of control

## S=c1nn[nH]n1C1CCCCC1
dose: 25.0 mg/kg/injection, schedule: Q01DX009 (ip), vehicle: saline with Tween-80
  T/C: 92 % of control
[24]
  T/C: 88 % of control
dose: 100.0 mg/kg/injection, schedule: Q01DX009 (ip), vehicle: saline with Tween-80
  T/C: 90 % of control
[1]
  T/C: 103 % of control
[3]
  T/C: 87 % of control

## S=C(N/N=C/c1ccccn1)N/N=C/c1ccccn1
dose: 20.0 mg/kg/injection, schedule: Q01DX009 (ip), vehicle: saline with Tween-80
  T/C: 105 % of control
dose: 33.0 mg/kg/injection, schedule: Q01DX009 (ip), vehicle: saline with Tween-80
  T/C: 100 % of control
[24]
  T/C: 152 % of control
[1]
  T/C: 103 % of control

## CNC1(c2ccccc2)CC2CCC(C2)C1=O (configuration not stated)
dose: 25.0 mg/kg/injection, schedule: Q04DX003 (ip), vehicle: saline
  T/C: 100 % of control
dose: 50.0 mg/kg/injection, schedule: Q04DX003 (ip), vehicle: saline
  T/C: 86 % of control
[10]
  T/C: 102 % of control

## CC(N)C(=O)c1ccccc1 (configuration not stated)
[13]
  T/C: 97 % of control
[14]
  T/C: 92 % of control

## C=C1C(=O)OCC2(C)CCCCC12 (configuration not stated)
dose: 10.0 mg/kg/injection, schedule: Q04DX003 (ip), vehicle: saline
  T/C: 101 % of control
dose: 20.0 mg/kg/injection, schedule: Q04DX003 (ip), vehicle: saline
  T/C: 116 % of control

## NC(N)=NCC1COc2ccccc2O1 (configuration not stated)
dose: 25.0 mg/kg/injection, schedule: Q01DX001 (ip), vehicle: carboxymethylcellulose (CMC)
  T/C: 103 % of control
dose: 50.0 mg/kg/injection, schedule: Q01DX001 (ip), vehicle: carboxymethylcellulose (CMC)
  T/C: 106 % of control
[21]
  T/C: 108 % of control

## CCOc1cccnc1/C=N/NC(N)=S
[20]
  T/C: 106 % of control
[10]
  T/C: 102 % of control
[11]
  T/C: 100 % of control
[12]
  T/C: 108 % of control
